Reference: ChEMBL document CHEMBL5154747, “Discovery of new carbonic anhydrase IX inhibitors as anticancer agents by toning the hydrophobic and hydrophilic rims of the active site to encounter the dual-tail approach” (Eur J Med Chem, 2022)

Assays:
Assay type in all cases: functional
Conditions in all cases: read-out: GI
NCI-H322M = assay: Anticancer activity against human NCI-H322M cells assessed as cell growth inhibition at 10 uM incubated for 48 hrs by SRB assay relative to control
786-0 = assay: Anticancer activity against human 786-0 cells assessed as cell growth inhibition at 10 uM incubated for 48 hrs by SRB assay relative to control
Malme-3M = assay: Anticancer activity against human Malme-3M cells assessed as cell growth inhibition at 10 uM incubated for 48 hrs by SRB assay relative to control
HOP-62 = assay: Anticancer activity against human HOP-62 cells assessed as cell growth inhibition at 10 uM incubated for 48 hrs by SRB assay relative to control
SF-268 = assay: Anticancer activity against human SF-268 cells assessed as cell growth inhibition at 10 uM incubated for 48 hrs by SRB assay relative to control
SK-MEL-28 = assay: Anticancer activity against human SK-MEL-28 cells assessed as cell growth inhibition at 10 uM incubated for 48 hrs by SRB assay relative to control
KM12 = assay: Anticancer activity against human KM12 cells assessed as cell growth inhibition at 10 uM incubated for 48 hrs by SRB assay relative to control
SF-295 = assay: Anticancer activity against human SF-295 cells assessed as cell growth inhibition at 10 uM incubated for 48 hrs by SRB assay relative to control
HOP-92 = assay: Anticancer activity against human HOP-92 cells assessed as cell growth inhibition at 10 uM incubated for 48 hrs by SRB assay relative to control
MDA-MB-435 = assay: Anticancer activity against human MDA-MB-435 cells assessed as cell growth inhibition at 10 uM incubated for 48 hrs by SRB assay relative to control
BT-549 = assay: Anticancer activity against human BT-549 cells assessed as cell growth inhibition at 10 uM incubated for 48 hrs by SRB assay relative to control
A498 = assay: Anticancer activity against human A498 cells assessed as cell growth inhibition at 10 uM incubated for 48 hrs by SRB assay relative to control
OVCAR-3 = assay: Anticancer activity against human OVCAR-3 cells assessed as cell growth inhibition at 10 uM incubated for 48 hrs by SRB assay relative to control
SNB-19 = assay: Anticancer activity against human SNB-19 cells assessed as cell growth inhibition at 10 uM incubated for 48 hrs by SRB assay relative to control
SW-620 = assay: Anticancer activity against human SW-620 cells assessed as cell growth inhibition at 10 uM incubated for 48 hrs by SRB assay relative to control
NCI/ADR-RES = assay: Anticancer activity against human NCI/ADR-RES cells assessed as cell growth inhibition at 10 uM incubated for 48 hrs by SRB assay relative to control
SK-MEL-5 = assay: Anticancer activity against human SK-MEL-5 cells assessed as cell growth inhibition at 10 uM incubated for 48 hrs by SRB assay relative to control
Hs-578T = assay: Anticancer activity against human Hs-578T cells assessed as cell growth inhibition at 10 uM incubated for 48 hrs by SRB assay relative to control
OVCAR-8 = assay: Anticancer activity against human OVCAR-8 cells assessed as cell growth inhibition at 10 uM incubated for 48 hrs by SRB assay relative to control
OVCAR-4 = assay: Anticancer activity against human OVCAR-4 cells assessed as cell growth inhibition at 10 uM incubated for 48 hrs by SRB assay relative to control
MDA-MB-468 = assay: Anticancer activity against human MDA-MB-468 cells assessed as cell growth inhibition at 10 uM incubated for 48 hrs by SRB assay relative to control
SK-OV-3 = assay: Anticancer activity against human SK-OV-3 cells assessed as cell growth inhibition at 10 uM incubated for 48 hrs by SRB assay relative to control
RPMI-8226 = assay: Anticancer activity against human RPMI-8226 cells assessed as cell growth inhibition at 10 uM incubated for 48 hrs by SRB assay relative to control
T47D = assay: Anticancer activity against human T47D cells assessed as cell growth inhibition at 10 uM incubated for 48 hrs by SRB assay relative to control
SNB-75 = assay: Anticancer activity against human SNB-75 cells assessed as cell growth inhibition at 10 uM incubated for 48 hrs by SRB assay relative to control
NCI-H23 = assay: Anticancer activity against human NCI-H23 cells assessed as cell growth inhibition at 10 uM incubated for 48 hrs by SRB assay relative to control
K562 = assay: Anticancer activity against human K562 cells assessed as cell growth inhibition at 10 uM incubated for 48 hrs by SRB assay relative to control
HL-60(TB) = assay: Anticancer activity against human HL-60(TB) cells assessed as cell growth inhibition at 10 uM incubated for 48 hrs by SRB assay relative to control
EKVX = assay: Anticancer activity against human EKVX cells assessed as cell growth inhibition at 10 uM incubated for 48 hrs by SRB assay relative to control
A549 = assay: Anticancer activity against human A549 cells assessed as cell growth inhibition at 10 uM incubated for 48 hrs by SRB assay relative to control
UACC-257 = assay: Anticancer activity against human UACC-257 cells assessed as cell growth inhibition at 10 uM incubated for 48 hrs by SRB assay relative to control
MOLT-4 = assay: Anticancer activity against human MOLT-4 cells assessed as cell growth inhibition at 10 uM incubated for 48 hrs by SRB assay relative to control
RXF 393 = assay: Anticancer activity against human RXF 393 cells assessed as cell growth inhibition at 10 uM incubated for 48 hrs by SRB assay relative to control
IGROV-1 = assay: Anticancer activity against human IGROV-1 cells assessed as cell growth inhibition at 10 uM incubated for 48 hrs by SRB assay relative to control
NCI-H522 = assay: Anticancer activity against human NCI-H522 cells assessed as cell growth inhibition at 10 uM incubated for 48 hrs by SRB assay relative to control
SK-MEL-2 = assay: Anticancer activity against human SK-MEL-2 cells assessed as cell growth inhibition at 10 uM incubated for 48 hrs by SRB assay relative to control
COLO 205 = assay: Anticancer activity against human COLO 205 cells assessed as cell growth inhibition at 10 uM incubated for 48 hrs by SRB assay relative to control
CAKI-1 = assay: Anticancer activity against human CAKI-1 cells assessed as cell growth inhibition at 10 uM incubated for 48 hrs by SRB assay relative to control
MDA-MB-231 = assay: Anticancer activity against human MDA-MB-231 cells assessed as cell growth inhibition at 10 uM incubated for 48 hrs by SRB assay relative to control

Structure (SMILES): NS(=O)(=O)c1ccc(Nc2nc(N/N=C/C=C/c3ccccc3)nc(Nc3ccccc3)n2)cc1
- inhibition of growth at 10 µM (NCI-H322M): 43%
- inhibition of growth at 10 µM (786-0): 62%
- inhibition of growth at 10 µM (Malme-3M): 49%
- inhibition of growth at 10 µM (HOP-62): 43%
- inhibition of growth at 10 µM (SF-268): 53%
- inhibition of growth at 10 µM (SK-MEL-28): 39%
- inhibition of growth at 10 µM (KM12): 44%
- inhibition of growth at 10 µM (SF-295): 55%
- inhibition of growth at 10 µM (HOP-92): 16%
- inhibition of growth at 10 µM (MDA-MB-435): 48%
- inhibition of growth at 10 µM (BT-549): 34%
- inhibition of growth at 10 µM (A498): 59%
- inhibition of growth at 10 µM (OVCAR-3): 55%
- inhibition of growth at 10 µM (SNB-19): 51%
- inhibition of growth at 10 µM (SW-620): 48%
- inhibition of growth at 10 µM (NCI/ADR-RES): < 10%
- inhibition of growth at 10 µM (SK-MEL-5): 59%
- inhibition of growth at 10 µM (Hs-578T): 60%
- inhibition of growth at 10 µM (OVCAR-8): 50%
- inhibition of growth at 10 µM (OVCAR-4): 50%
- inhibition of growth at 10 µM (MDA-MB-468): 84%
- inhibition of growth at 10 µM (SK-OV-3): 21%
- inhibition of growth at 10 µM (RPMI-8226): 71%
- inhibition of growth at 10 µM (T47D): 81%
- inhibition of growth at 10 µM (SNB-75): 57%
- inhibition of growth at 10 µM (NCI-H23): 59%
- inhibition of growth at 10 µM (K562): 72%
- inhibition of growth at 10 µM (HL-60(TB)): 61%
- inhibition of growth at 10 µM (EKVX): 28%
- inhibition of growth at 10 µM (A549): 30%
- inhibition of growth at 10 µM (UACC-257): 20%
- inhibition of growth at 10 µM (MOLT-4): 87%
- inhibition of growth at 10 µM (RXF 393): 108%
- inhibition of growth at 10 µM (IGROV-1): 63%
- inhibition of growth at 10 µM (NCI-H522): 33%
- inhibition of growth at 10 µM (SK-MEL-2): 55%
- inhibition of growth at 10 µM (COLO 205): 44%
- inhibition of growth at 10 µM (CAKI-1): 53%
- inhibition of growth at 10 µM (MDA-MB-231): 52%

Structure (SMILES): NS(=O)(=O)c1ccc(Nc2nc(N/N=C/c3ccc(Cl)cc3)nc(Nc3ccccc3)n2)cc1
- inhibition of growth at 10 µM (NCI-H322M): < 10%
- inhibition of growth at 10 µM (786-0): 59%
- inhibition of growth at 10 µM (Malme-3M): 11%
- inhibition of growth at 10 µM (HOP-62): 16%
- inhibition of growth at 10 µM (SF-268): 26%
- inhibition of growth at 10 µM (SK-MEL-28): 24%
- inhibition of growth at 10 µM (KM12): 36%
- inhibition of growth at 10 µM (SF-295): 41%
- inhibition of growth at 10 µM (HOP-92): < 10%
- inhibition of growth at 10 µM (MDA-MB-435): 42%
- inhibition of growth at 10 µM (BT-549): 25%
- inhibition of growth at 10 µM (A498): 23%
- inhibition of growth at 10 µM (OVCAR-3): 29%
- inhibition of growth at 10 µM (SNB-19): 18%
- inhibition of growth at 10 µM (SW-620): < 10%
- inhibition of growth at 10 µM (NCI/ADR-RES): < 10%
- inhibition of growth at 10 µM (SK-MEL-5): 30%
- inhibition of growth at 10 µM (Hs-578T): 35%
- inhibition of growth at 10 µM (OVCAR-8): 32%
- inhibition of growth at 10 µM (OVCAR-4): 16%
- inhibition of growth at 10 µM (MDA-MB-468): 33%
- inhibition of growth at 10 µM (SK-OV-3): < 10%
- inhibition of growth at 10 µM (RPMI-8226): 45%
- inhibition of growth at 10 µM (T47D): 55%
- inhibition of growth at 10 µM (SNB-75): < 10%
- inhibition of growth at 10 µM (NCI-H23): 12%
- inhibition of growth at 10 µM (K562): 40%
- inhibition of growth at 10 µM (HL-60(TB)): 27%
- inhibition of growth at 10 µM (EKVX): 23%
- inhibition of growth at 10 µM (A549): 37%
- inhibition of growth at 10 µM (UACC-257): 10%
- inhibition of growth at 10 µM (MOLT-4): 98%
- inhibition of growth at 10 µM (RXF 393): 111%
- inhibition of growth at 10 µM (IGROV-1): 33%
- inhibition of growth at 10 µM (NCI-H522): 20%
- inhibition of growth at 10 µM (SK-MEL-2): 18%
- inhibition of growth at 10 µM (COLO 205): 26%
- inhibition of growth at 10 µM (CAKI-1): 37%
- inhibition of growth at 10 µM (MDA-MB-231): 13%
